Data as given in US12018252B2, “Methods and compositions for identifying neoantigens for use in treating cancer” (Arizona Board of Regents on Behalf of Arizona State …, priority 2019, dated 2024).

Assays:
[1] = test system: 4T1 cells; test: BALB/C-4T1 mouse breast tumor model: immunization then tumor challenge; assay type: in vivo; conditions: 4T1-BALB/c
Protocol: BALB/c and C57BL/6 mice were from Charles River Laboratories or Jackson Laboratories. […] Tumor volumes were measured and calculated by (Length^2×Width/2) daily after the size was larger than 1 mm^3. Breeding pairs of BALB-neuT and FVB-neuN (FVB/N-Tg (MMTVneu) 202Mul) mice were obtained from Joseph Lustgarten, Mayo Clinic Arizona. Mice were monitored weekly for the tumor incidence after tumor size reached 1 mm^3. All experiments were performed in accordance with protocols approved by the Institutional Animal Care and Use Committee of Arizona State University.
The DNA fragments encoding FS peptides were cloned as a C-terminal fusion into the genetic immunization vectors pCMVi-UB (26) and pCMVi-LSrCOMPTT (27, 28) with the Bgl II and Hind III and mixed with 1:1 ratio as the vaccine antigen. Three adjuvants were encoded by genetic immunization vectors. The pCMVi-mGM-CSF vector expresses the adjuvant mouse granulocyte/macrophage colony-stimulating factor (mGM-CSF) under control of the human cytomegalovirus (CMV) promoter (27). […]. Vectors pCMVi-UB, pCMVi-LSrCOMPTT, pCMVi-LTA (also called pCMVi-LS-LTA-R192G) and pCMVi-LTB are available from the PSI:Biology-Materials Repository DNASU (dnasu.org) at Arizona State University. Additional adjuvants were the class A CpG 2216 single-stranded oligodeoxynucleotide obtained from Sigma and alum from Pierce.
Bullets for biolistic genetic immunization used the gold micronanoplex approach and were prepared as described (30) with the following changes. Two grams of 1-micron gold was used. Prior to addition of N-hydroxysuccinimide and N-(3-dimethylaminopropyl)-N′-ethylcarbodiimide hydrochloride, the gold was resuspended in 20 mL of a 0.1 M solution of 2-(N-morpholino) ethanesulfonic acid (MES), pH 6.0. DNA-gold micronanoplexes were prepared by combining, per bullet, 57 μL of cysteamine-gold solution with precipitated DNA (≤10 μg) that had been resuspended in ≤15 μL of water, and then vortexing for 10 min. To the DNA-cysteamine-gold was added […] of a freshly made solution of PEI-micron gold (167 mg/mL in 0.1 M MES, pH 6, without NaCl). The pelleted micronanoplexes were washed with ethanol prior to resuspension in n-butanol ([…]), followed by bullet formation under nitrogen gas.
For the three MS FS experiments, all mice (n=10 per group) were genetically immunized in the ear by Gene Gun at 8 weeks of age (2 shots/mouse, 60 ng pooled antigens plus 0.25 μg LTAB and 2.5 μg CpG2216 as the adjuvant for each shot) and boosted twice (two days apart) in three weeks with 1 μg pooled antigens plus the same adjuvants dosage. All mice were boosted again in two weeks with 50 μg KLH conjugated MS FS peptides with 50 μg CpG 2216 and 50 ul alum in total 100 ul PBS. […]

[2] = test system: B16-F10 cells; test: C57BL/B16-F10 mouse melanoma model: genetic immunization then tumor challenge; assay type: in vivo; conditions: B16F10-C57BL6; gene gun genetic immunization; compared to mock/control antigen CPV 172; n=10 per group
[3] = gene vaccines three times in two week intervals, 2x10^3 4T1 cells subcutaneous, n=4 per group, vs mock

Row | Sequence | tumor growth [1, 3] | tumor growth (tumor volume) [2] | tumor growth ([1]; gene gun plus KLH-peptide boost, 5x10^3 4T1 cells, n=10 per group) | T cell dependence of protection (CD8 or CD4 T-cell depletion) ([1]; immunized mice depleted with anti CD8 or anti CD4 antibody)
1 | AVLLMCQLYQPWMCKEYYRLL [ZDHHC17, mouse mis-splicing FS antigen, skips exon 16] | did not | – | – | –
2 | IPRMQPQASANHCQLLKVMVA [SLAIN2-FS, mouse mis-splicing FS antigen, skips exon 7] | conferred tumor retardation | – | – | –
3 | TAIIGPNGSGCSGVYCHEEPQGEDSSV [SMC1A 1^4 FS, mouse mis-splicing FS antigen, SMC1A exon 1 joined to exon 4] | – | significant retardation of tumor growth | significantly retarded the 4T1 tumor growth | CD8 T cell dependent
